How the values were obtained:
Assay in all cases: relative viability (nuclei count vs DMSO), 5 days (fraction); higher = more cells survive
[1] = compound: O=C(CCCCCCC(=O)Nc1ccccc1)NO [Vorinostat]
Outline: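 Lung cancer cell lines received five library-drug doses (not always all listed) spaced by √10, pinned on vehicle-anchored 1536-well plates after an overnight stay at 37 °C. Five days later, with no medium change, nuclei were Hoechst-stained, imaged at 4× and counted with MetaXpress. Viability is treated-well nuclei relative to vehicle-well nuclei, as a median across plates. Passing plates had control CV below 25% and at least one doubling.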

[2] = compound: O=C(CCCCCCC(=O)Nc1ccccc1)NO [Vorinostat] + CCNC(=O)c1noc(-c2cc(C(C)C)c(O)cc2O)c1-c1ccc(CN2CCOCC2)cc1 [Luminespib] (partner 0.01 µM)
Outline: (§1)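 Relative viability equals treated-well nuclei counts divided by vehicle-well nuclei counts. Counts came from 4× images of lung cancer cell lines grown in 1536-well plates for 5 days after pin-tool dosing on the day after seeding. Dosing used one drug alone or a fixed anchor-drug dose plus five library-drug doses (not always all listed) in √10 steps, and values are medians of duplicate plates.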

[3] = compound: O=C(CCCCCCC(=O)Nc1ccccc1)NO [Vorinostat] + Cc1cc(Nc2cc(N3CCN(C)CC3)nc(Sc3ccc(NC(=O)C4CC4)cc3)n2)n[nH]1 [Tozasertib] (partner 0.1 µM)
Outline: as §1

[4] = compound: O=C(CCCCCCC(=O)Nc1ccccc1)NO [Vorinostat] + Cc1nc(Nc2ncc(C(=O)Nc3c(C)cccc3Cl)s2)cc(N2CCN(CCO)CC2)n1 [Dasatinib] (partner 0.075 µM)
Outline: as §1

[5] = compound: O=C(CCCCCCC(=O)Nc1ccccc1)NO [Vorinostat] + Nc1nc2[nH]cc(CCc3ccc(C(=O)N[C@@H](CCC(=O)O)C(=O)O)cc3)c2c(=O)[nH]1 [Pemetrexed] (partner 0.2 µM)
Outline: as §1

[6] = compound: O=C(CCCCCCC(=O)Nc1ccccc1)NO [Vorinostat] + NC(=O)Nc1cc(-c2cccc(F)c2)sc1C(=O)N[C@H]1CCCNC1 [AZD7762] (partner 0.2 µM)
Outline: as §1

[7] = compound: O=C(CCCCCCC(=O)Nc1ccccc1)NO [Vorinostat] + CC(=O)c1c(C)c2cnc(Nc3ccc(N4CCNCC4)cn3)nc2n(C2CCCC2)c1=O [Palbociclib] (partner 0.5 µM)
Outline: as §1

[8] = compound: O=C(CCCCCCC(=O)Nc1ccccc1)NO [Vorinostat] + COc1cccc2cc(-c3nc([C@H]4CC[C@H](C(=O)O)CC4)n4ncnc(N)c34)[nH]c12 [OSI-027] (partner 0.5 µM)
Outline: as §1

[9] = compound: O=C(CCCCCCC(=O)Nc1ccccc1)NO [Vorinostat] + Nc1ncn([C@H]2C[C@H](O)[C@@H](CO)O2)c(=O)n1 [Decitabine] (partner 2 µM)
Outline: as §1

[10] = compound: O=C(CCCCCCC(=O)Nc1ccccc1)NO [Vorinostat] + O=C(c1cc(Cc2n[nH]c(=O)c3ccccc23)ccc1F)N1CCN(C(=O)C2CC2)CC1 [Olaparib] (partner 8 µM)
Outline: as §1

[11] = compound: O=C(CCCCCCC(=O)Nc1ccccc1)NO [Vorinostat] + N=C(N)NC(=N)NCCc1ccccc1 [Phenformin] (partner 250 µM)
Outline: as §1

[12] = compound: O=C(CCCCCCC(=O)Nc1ccccc1)NO [Vorinostat] + CC(=O)Nc1cccc(-n2c(=O)n(C3CC3)c(=O)c3c(Nc4ccc(I)cc4F)n(C)c(=O)c(C)c32)c1 [Trametinib] (partner 0.02 µM)
Outline: as §1

[13] = compound: O=C(CCCCCCC(=O)Nc1ccccc1)NO [Vorinostat] + COc1cc2c(Oc3ccc(NC(=O)C4(C(=O)Nc5ccc(F)cc5)CC4)cc3F)ccnc2cc1OCCCN1CCOCC1 [Foretinib] (partner 0.25 µM)
Outline: as §1

Cell Line: NCI-H522
- relative viability ([1]; 0.253 µM): 1.1
- relative viability ([1]; 0.8 µM): 0.869
- relative viability ([1]; 1 µM, anchor plate): 0.962
- relative viability ([1]; 2.53 µM): 0.768
- relative viability ([1]; 8 µM): 0.299
- relative viability ([2]; first compound 0.253 µM): 1.44
- relative viability ([2]; first compound 0.8 µM): 0.972
- relative viability ([2]; first compound 2.53 µM): 0.361
- relative viability ([2]; first compound 8 µM): 0.259
- relative viability ([3]; first compound 0.253 µM): 0.644
- relative viability ([3]; first compound 0.8 µM): 0.457
- relative viability ([3]; first compound 2.53 µM): 0.302
- relative viability ([3]; first compound 8 µM): 0.141
- relative viability ([4]; first compound 0.253 µM): 0.895
- relative viability ([4]; first compound 0.8 µM): 0.99
- relative viability ([4]; first compound 2.53 µM): 0.344
- relative viability ([4]; first compound 8 µM): 0.239
- relative viability ([5]; first compound 0.253 µM): 1.22
- relative viability ([5]; first compound 0.8 µM): 1.05
- relative viability ([5]; first compound 2.53 µM): 1.01
- relative viability ([5]; first compound 8 µM): 0.262
- relative viability ([6]; first compound 0.253 µM): 0.987
- relative viability ([6]; first compound 0.8 µM): 1.05
- relative viability ([6]; first compound 2.53 µM): 0.834
- relative viability ([6]; first compound 8 µM): 0.235
- relative viability ([7]; first compound 0.253 µM): 1.2
- relative viability ([7]; first compound 0.8 µM): 0.879
- relative viability ([7]; first compound 2.53 µM): 0.616
- relative viability ([7]; first compound 8 µM): 0.252
- relative viability ([8]; first compound 0.253 µM): 0.8
- relative viability ([8]; first compound 0.8 µM): 0.617
- relative viability ([8]; first compound 2.53 µM): 0.591
- relative viability ([8]; first compound 8 µM): 0.247
- relative viability ([9]; first compound 0.253 µM): 0.632
- relative viability ([9]; first compound 0.8 µM): 0.657
- relative viability ([9]; first compound 2.53 µM): 0.531
- relative viability ([9]; first compound 8 µM): 0.259
- relative viability ([10]; first compound 0.253 µM): 0.778
- relative viability ([10]; first compound 0.8 µM): 0.654
- relative viability ([10]; first compound 2.53 µM): 0.318
- relative viability ([10]; first compound 8 µM): 0.168
- relative viability ([11]; first compound 0.253 µM): 0.728
- relative viability ([11]; first compound 0.8 µM): 0.593
- relative viability ([11]; first compound 2.53 µM): 0.602
- relative viability ([11]; first compound 8 µM): 0.252
- relative viability ([12]; first compound 0.253 µM): 0.93
- relative viability ([12]; first compound 0.8 µM): 0.706
- relative viability ([12]; first compound 2.53 µM): 0.707
- relative viability ([12]; first compound 8 µM): 0.263

Cell Line: NCI-H1623
- relative viability ([1]; 0.253 µM): 0.916
- relative viability ([1]; 0.8 µM): 0.948
- relative viability ([1]; 2.53 µM): 0.358
- relative viability ([1]; 8 µM): 0.217
- relative viability ([2]; first compound 0.253 µM): 0.529
- relative viability ([2]; first compound 0.8 µM): 0.564
- relative viability ([2]; first compound 2.53 µM): 0.398
- relative viability ([2]; first compound 8 µM): 0.291
- relative viability ([3]; first compound 0.253 µM): 0.41
- relative viability ([3]; first compound 0.8 µM): 0.408
- relative viability ([3]; first compound 2.53 µM): 0.283
- relative viability ([3]; first compound 8 µM): 0.217
- relative viability ([4]; first compound 0.253 µM): 0.387
- relative viability ([4]; first compound 0.8 µM): 0.521
- relative viability ([4]; first compound 2.53 µM): 0.436
- relative viability ([4]; first compound 8 µM): 0.203
- relative viability ([13]; first compound 0.253 µM): 0.918
- relative viability ([13]; first compound 0.8 µM): 0.781
- relative viability ([13]; first compound 2.53 µM): 0.42
- relative viability ([13]; first compound 8 µM): 0.233
- relative viability ([8]; first compound 0.253 µM): 0.462
- relative viability ([8]; first compound 0.8 µM): 0.392
- relative viability ([8]; first compound 2.53 µM): 0.281
- relative viability ([8]; first compound 8 µM): 0.209
- relative viability ([11]; first compound 0.253 µM): 0.61
- relative viability ([11]; first compound 0.8 µM): 0.564
- relative viability ([11]; first compound 2.53 µM): 0.462
- relative viability ([11]; first compound 8 µM): 0.225
